Experimental findings from paper PMC10599030, “[1, 8]-Naphthyridine derivatives as dual inhibitor of alkaline phosphatase and carbonic anhydrase” (BMC Chemistry, 2023) are described below.

What all share (assay type): biochemical
The target in one assay is T1, b-TNAP (Bos taurus, UniProt P09487).
T1 sequence (P09487 18-524): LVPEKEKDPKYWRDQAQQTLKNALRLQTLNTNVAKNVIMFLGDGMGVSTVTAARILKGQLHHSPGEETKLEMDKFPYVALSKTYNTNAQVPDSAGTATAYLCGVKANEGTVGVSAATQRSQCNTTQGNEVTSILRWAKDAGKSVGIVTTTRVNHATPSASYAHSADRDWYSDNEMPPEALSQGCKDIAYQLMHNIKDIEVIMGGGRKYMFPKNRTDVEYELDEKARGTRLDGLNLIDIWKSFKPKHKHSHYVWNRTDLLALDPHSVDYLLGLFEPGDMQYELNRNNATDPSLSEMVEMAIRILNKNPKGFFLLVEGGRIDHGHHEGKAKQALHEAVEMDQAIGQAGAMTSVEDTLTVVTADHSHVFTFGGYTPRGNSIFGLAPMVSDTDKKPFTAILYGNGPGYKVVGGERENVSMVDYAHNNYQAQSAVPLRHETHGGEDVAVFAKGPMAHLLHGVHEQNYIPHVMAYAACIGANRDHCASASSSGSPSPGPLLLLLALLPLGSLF
Briefly: Alkaline phosphatase inhibition assay (b-TNAP, p-NPP substrate). The settings on record: for IC50: n = 3, read-out: b-TNAP IC50 (µM) ± SEM; for inhibition at 100 µM: read-out: b-TNAP % Inhibition. As for the experimental part:
The assay was based on previously reported protocol. […] All the solutions were made in assay buffer comprising Tris-HCl (50 mM), ZnCl2 (0.1 mM) and MgCl2 (5 mM) and pH was adjusted at 9.5. […] Assay was started by adding 70 μL of assay buffer in each well of 96 wells flat bottom clear microplate, followed by adding 10 μL of test compound and 10 μL of working enzyme solution. The reaction mixture was incubated at 37 °C for 10 min and absorbance was measured by a microplate reader (Bio-[…], Instruments, Inc. USA) at 405 nm. The reaction was started by adding 10 μL of 5 mM p-NPP (para-nitrophenolphosphate) as substrate. […] Following formula was used to calculate the percentage of inhibition of test compounds.

Another assay has as its target T2, h-CAXII (Homo sapiens, UniProt O43570).
T2 construct: His (N); host or cells: HEK 293 T
Put plainly: Inhibition assay for carbonic anhydrase XII. Particulars: for IC50: n = 3, read-out: CAXII IC50 (µM) ± SEM. On the procedure:
(§1) Expression of enzyme protein was done according to previously reported protocol. Briefly, transfection was carried out for CA-II, IX, and XII by using vectors pCMV3-N-His, pCMV3-SP-HIS-ORF, and pCMV3-N-His obtained from Sino Biologicals Inc., respectively. […] When cells gained about 80–90% confluency, they were washed twice with PBS and transfected with 0.2 µg plasmid solution. Cells were incubated for 6 h in 5% CO2 incubator, followed by the addition of fresh growth media. Cells were again incubated for 24 h. Hygromycin B (0.2 mg/mL) was used as a selection antibiotic for transfected cells. Cells were harvested after five days and lysed. Then desired proteins were purified via Ni–NTA resin using imidazole as affinity. SDS PAGE was carried out to confirm the molecular weight of purified protein.
(§2) The CA isozymes inhibition assay was performed according to the reported method after some modifications. Assay buffer was prepared that contained 50 mM tris-sulfate, 0.1 mM ZnCl2, and pH was adjusted at 7.6. Initially, 60 µL assay buffer was added in each well of 96 wells plate, 10 µL test compound (final concentration 100 µM), and followed by the addition of 10 µL working enzyme solution. The reaction mixture was incubated for 10 min at 37 °C. […] Then 20 µL of the substrate (6 mM) was added to the reaction mixture to initiate the reaction. The reaction mixture was incubated at 37 °C for 30 min, and absorbance was measured again. […] Results were reported as the mean of triplicate experiments (± SEM). The % inhibition was calculated by following the formula. Inhibition%=100-ODtestcompound/ODcontrol×100

In a further assay the target is T3, h-CAII (Homo sapiens, UniProt P00918).
T3 construct: His (N); host or cells: HEK 293 T
Briefly: Inhibition assay for carbonic anhydrase II. The settings on record: for IC50: n = 3, read-out: CAII IC50 (µM) ± SEM. On the procedure: as §1, §2

The next assay deals with T4, h-CAIX (Homo sapiens, UniProt Q16790).
T4 construct: His (N); host or cells: HEK 293 T
Briefly: Inhibition assay for carbonic anhydrase IX. The settings on record: for IC50: n = 3, read-out: CAIX IC50 (µM) ± SEM. On the procedure: as §1, §2

The target of a further assay is c-IAP (Bos taurus, UniProt P19111). Put plainly: Alkaline phosphatase inhibition assay (c-IAP, p-NPP substrate). On the procedure: [1, 8]-Naphthyridine derivatives were screened for inhibitor potential towards b-TNAP and c-IAP. The assay was based on previously reported protocol. […]. All the solutions were made in assay buffer comprising Tris–HCl (50 mM), ZnCl2 (0.1 mM) and MgCl2 (5 mM) and pH was adjusted at 9.5. Working solutions of both enzymes were prepared in assay buffer containing 50% of glycerol. The final concentration of b-TNAP and c-IAP were kept at 0.025 U/mL and 0.05 U/mL, respectively. Assay was started by adding 70 µL of assay buffer in each well of 96 wells flat bottom clear microplate, followed by adding 10 µL of test compound and 10 µL of working enzyme solution. The reaction mixture was incubated at 37 °C for 10 min and absorbance was measured by a microplate reader (Bio-TekELx 800™, Instruments, Inc. USA) at 405 nm. The reaction was started by adding 10 µL of 5 mM p-NPP (para-nitrophenolphosphate) as substrate. […]. Following formula was used to calculate the percentage of inhibition of test compounds. Inhibition%=100-ODtestcompound/ODcontrol×100

Where [1] appears, read: 100 µM final concentration of compound.

“And” between values parts separate entries of the source, which are not always exact repeats. Identical values can stand only once. Like-named read-outs stand apart in the source and are kept apart here. A value given as a limit tells only on which side of the number the result lay.

Sequence of c-IAP (P19111 20-506): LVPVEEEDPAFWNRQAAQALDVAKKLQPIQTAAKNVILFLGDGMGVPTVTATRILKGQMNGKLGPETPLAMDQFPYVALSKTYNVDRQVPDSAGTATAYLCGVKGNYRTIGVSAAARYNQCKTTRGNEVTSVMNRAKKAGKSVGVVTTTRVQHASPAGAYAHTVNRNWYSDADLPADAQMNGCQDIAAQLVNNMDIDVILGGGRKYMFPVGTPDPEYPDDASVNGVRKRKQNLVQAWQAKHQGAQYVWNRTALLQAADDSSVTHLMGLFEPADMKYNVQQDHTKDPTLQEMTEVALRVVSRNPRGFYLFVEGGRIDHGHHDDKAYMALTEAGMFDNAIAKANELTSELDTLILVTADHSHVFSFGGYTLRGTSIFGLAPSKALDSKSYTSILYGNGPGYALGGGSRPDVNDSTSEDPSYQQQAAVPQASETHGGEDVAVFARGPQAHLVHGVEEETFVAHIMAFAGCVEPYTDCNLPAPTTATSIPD
T2 sequence (O43570 25-354): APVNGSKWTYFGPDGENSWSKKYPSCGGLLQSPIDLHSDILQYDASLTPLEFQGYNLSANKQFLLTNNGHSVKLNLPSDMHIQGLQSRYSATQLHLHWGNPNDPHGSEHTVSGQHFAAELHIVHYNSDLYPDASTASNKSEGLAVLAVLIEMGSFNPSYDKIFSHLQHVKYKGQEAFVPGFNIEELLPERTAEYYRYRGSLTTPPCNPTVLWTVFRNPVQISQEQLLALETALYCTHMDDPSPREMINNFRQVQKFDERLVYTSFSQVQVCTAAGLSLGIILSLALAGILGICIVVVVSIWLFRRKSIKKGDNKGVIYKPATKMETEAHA

Usually IC50 stands for the concentration that inhibits the measured activity by half. Regarding `Fc1ccc(-c2cc3cccnc3n3cccc23)cc1` [Compound 1c], the IC50 on b-TNAP turned out to be 1.01 ± 0.31 µM; on h-CAXII, 0.96 ± 0.28 µM; at h-CAII it was 0.9 ± 0.5 µM; at h-CAIX, 0.7 ± 0.27 µM.

One may read the inhibition as the drop in the measured response relative to a control, in per cent. Turning to `Fc1ccccc1-c1cc2cccnc2n2cccc12` [Compound 1j], the “Activity against b-TNAP in words” value at b-TNAP is listed as “loss of activity”. Moreover, the inhibition at 100 µM on b-TNAP was under 20%. Moreover, the IC50 at h-CAXII is 0.51 ± 0.26 µM; on h-CAII it was 2.14 ± 0.3 µM; on h-CAIX, 1.65 ± 0.98 µM.

Consider `COc1ccc(-c2cc3cccnc3n3cccc23)cc1` [Compound 1f], for which the results for the IC50 on b-TNAP, at h-CAXII and on h-CAIX were 0.14 ± 0.12 µM, 4.3 ± 2.2 µM and 0.99 ± 0.12 µM, respectively.

Regarding `c1ccc(-c2cc3cccnc3n3cccc23)cc1` [Compound 1a], the IC50 at b-TNAP turned out to be 0.38 ± 0.09 µM; on h-CAXII, 0.32 ± 0.07 µM; at h-CAII, 1.28 ± 0.16 µM; at h-CAIX, 0.86 ± 0.47 µM.

Turning to `c1cnc2c(c1)cc(C1CCCCC1)c1cccn12` [Compound 1l], the IC50 at b-TNAP is 0.24 ± 0.06 µM; on h-CAXII, 1.5 ± 0.31 µM; on h-CAII, 1.99 ± 0.71 µM; on h-CAIX it was 3.2 ± 1.52 µM.

Take `COc1cccc(-c2cc3cccnc3n3cccc23)c1` [Compound 1g]: the IC50 on b-TNAP stood at 0.63 ± 0.47 µM; at h-CAXII, 3.05 ± 0.92 µM; on h-CAII it was 0.1 ± 0.04 µM; on h-CAIX it was 0.11 ± 0.03 µM.

In the case of `Cc1cccc(-c2cc3cccnc3n3cccc23)c1` [Compound 1i], on b-TNAP, the “Activity against b-TNAP in words” value is reported as “loss of activity” and the inhibition at 100 µM is under 30%. Besides, at h-CAXII, the “Activity against CA-XII in words” value is recorded as “significant activity” and the IC50 turned out to be 0.46 ± 0.12 µM. Besides, the “Activity against CA-II in words” value at h-CAII was “inactive”. For the same compound, on h-CAIX, the “Activity against CA-IX in words” value is “significant activity” and the IC50 was 0.87 ± 0.51 µM.

On to `c1cnc2c(c1)cc(-c1ccsc1)c1cccn12` [Compound 1k], for which the IC50 at b-TNAP amounted to 0.36 ± 0.07 µM; at h-CAXII, 1.8 ± 0.42 µM; on h-CAII, 1.63 ± 0.55 µM. On h-CAIX (setting [1]), this compound displayed a CAIX % inhibition of 35.1%. The compound further came in with an inhibition at 100 µM against h-CAIX (setting [1]) of under 50%.

Take `CCCCc1cc2cccnc2n2cccc12` [Compound 1e]: the IC50 is 0.32 ± 0.11 µM at b-TNAP, 0.51 ± 0.41 µM on h-CAXII, 0.44 ± 0.19 µM on h-CAII and 1.61 ± 0.26 µM at h-CAIX.

With `CC(C)(C)c1ccc(-c2cc3cccnc3n3cccc23)cc1` [Compound 1b], the IC50 on b-TNAP was 0.122 µM and 0.12 µM; on h-CAXII it was 1.51 ± 0.72 µM; at h-CAII it was 1.26 ± 0.44 µM. Moreover, at b-TNAP (ratio of IC50 values), the “Times more potent as compared to Levamisole (standard inhibitor of TNAP)” value was 160 times.

For `Cc1ccc(-c2cc3cccnc3n3cccc23)cc1` [Compound 1d], the inhibition at 100 µM on b-TNAP is under 30%. At h-CAXII, the “Activity against CA-XII in words” value is recorded as “marked activity” and the IC50 was found to be 2.4 ± 0.98 µM. Moreover, at h-CAII, the “Activity against CA-II in words” value was “inactive”. Besides, on h-CAIX, the “Activity against CA-IX in words” value is “marked activity” and the IC50 was 1.36 ± 0.48 µM.

As to `COc1ccc(-c2cc3cccnc3n3cccc23)c(C)c1` [Compound 1h], on b-TNAP, the “Activity against b-TNAP in words” value is “loss of activity”. The inhibition at 100 µM at b-TNAP (setting [1]) came to 33%; at c-IAP (read-out: c-IAP % Inhibition), 37%. Also, the “Activity against c-IAP in words” value on c-IAP is given as “complete loss of activity”. Besides, the IC50 at h-CAXII was 0.8 ± 0.69 µM; on h-CAII, 1.46 ± 0.96 µM; at h-CAIX, 0.74 ± 0.51 µM.

On to `c1ccc([C@H]2CN3CCSC3=N2)cc1` [Levamisole, reference compound], for which, at b-TNAP, the concentration for half-maximal inhibition (IC50) was determined as 19.21 ± 0.001 µM.

Take `N[C@@H](Cc1ccccc1)C(=O)O` [L-phenyl alanine, reference compound]: the IC50 at c-IAP (n = 3, read-out: c-IAP IC50 (µM) ± SEM) is 80.21 ± 0.001 µM.
